How the values were obtained:
Sortilin = molecular target: T1, Sortilin (Homo sapiens, UniProt Q99523); assay: Substrate activity at human SORT1 expressed in HEK293 cells assessed as compound uptake incubated for 2 hrs by flow cytometry; assay type: ADME, cell-based; details: hek293, 2 h
T1 sequence (Q99523 whole entry): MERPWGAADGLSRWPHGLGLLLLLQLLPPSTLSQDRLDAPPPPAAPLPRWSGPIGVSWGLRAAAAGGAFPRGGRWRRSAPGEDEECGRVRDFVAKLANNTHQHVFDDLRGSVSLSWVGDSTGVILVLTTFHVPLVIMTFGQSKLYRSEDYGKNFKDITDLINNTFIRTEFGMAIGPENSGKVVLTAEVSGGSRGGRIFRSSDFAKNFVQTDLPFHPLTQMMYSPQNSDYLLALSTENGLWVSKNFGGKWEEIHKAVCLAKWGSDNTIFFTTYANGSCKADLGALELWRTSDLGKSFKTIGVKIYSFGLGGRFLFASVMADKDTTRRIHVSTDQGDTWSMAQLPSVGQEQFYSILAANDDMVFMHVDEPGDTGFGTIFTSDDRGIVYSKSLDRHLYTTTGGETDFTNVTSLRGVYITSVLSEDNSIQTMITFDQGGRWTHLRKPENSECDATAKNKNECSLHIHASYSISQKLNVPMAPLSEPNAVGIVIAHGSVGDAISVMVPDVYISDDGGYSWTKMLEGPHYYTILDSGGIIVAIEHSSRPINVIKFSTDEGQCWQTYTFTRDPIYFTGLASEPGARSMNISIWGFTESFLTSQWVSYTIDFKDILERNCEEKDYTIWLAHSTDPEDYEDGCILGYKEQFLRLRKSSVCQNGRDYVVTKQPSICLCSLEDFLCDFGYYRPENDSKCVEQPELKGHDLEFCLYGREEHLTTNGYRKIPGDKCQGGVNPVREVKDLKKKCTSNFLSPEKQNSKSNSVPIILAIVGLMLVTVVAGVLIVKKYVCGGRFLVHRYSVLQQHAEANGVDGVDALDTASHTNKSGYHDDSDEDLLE

[1] = Drug uptake in HEK293 cells incubated for 2 hrs by flow cytometry; assay type: ADME, cell-based; details: human, hek293, 2 h

Row | Vmax (Sortilin) | Drug uptake [1] | Km (Sortilin) [µM] | Structure (SMILES)
1 | 1367 | – | – | CC[C@H](C)[C@H](NC(=O)[C@H](Cc1ccc(O)cc1)NC(=O)[C@@H]1CCCN1C(=O)[C@H](CCCNC(=N)N)NC(=O)[C@H](CCCNC(=N)N)NC(=O)[C@@H]1CCCN1C(=O)[C@H](CCCCN)NC(=O)[C@H](CC(N)=O)NC(=O)[C@H](CCC(=O)O)NC(=O)[C@H](Cc1ccc(O)cc1)NC(=O)[C@H](CC(C)C)NC(=O)CNC(=O)[C@@H]1CCCN1C(=O)[C@H](CO)NC(=O)[C@H](CO)NC(=O)CNC(=O)[C@H](C)NC(=O)[C@@H]1CCCN1C(=O)[C@@H]1CCCN1C(=O)[C@@H]1CCCN1C(=O)[C@@H](N)CCCCNC(=O)Cn1nnc2c1CC[C@H]1[C@@H](CC2)[C@H]1COC(=O)NCCOCCOCCNC(=O)CCCCC[N+]1=C(/C=C/C=C2/N(C)c3ccccc3C2(C)C)C(C)(C)c2ccccc21)C(=O)N[C@@H](CC(C)C)C(=O)O.[Cl-]
2 | 1397 | Not Active | 0.08 | CC[C@H](C)[C@H](NC(=O)[C@H](Cc1ccc(O)cc1)NC(=O)[C@@H]1CCCN1C(=O)[C@H](CCCNC(=N)N)NC(=O)[C@H](CCCNC(=N)N)NC(=O)[C@@H]1CCCN1C(=O)[C@H](CCCCN)NC(=O)[C@H](CC(N)=O)NC(=O)[C@H](CCC(=O)O)NC(=O)[C@H](Cc1ccc(O)cc1)NC(=O)[C@H](CC(C)C)NC(=O)[C@@H](N)CCCCNC(=O)Cn1nnc2c1CC[C@H]1[C@@H](CC2)[C@H]1COC(=O)NCCOCCOCCNC(=O)CCCCC[N+]1=C(/C=C/C=C2/N(C)c3ccccc3C2(C)C)C(C)(C)c2ccccc21)C(=O)N[C@@H](CC(C)C)C(=O)O.[Cl-]
